Tests used:
Siglec-9 = Siglec-9 (Homo sapiens, UniProt Q9Y336); assay: MUC1-ST binding to monocytic cell lines THP-1 and U937, with or without blocking antibody; assay type: cell-based; parameters: endogenous in cells; host or cells: THP-1 and U937 cells; details: time and concentration dependent
Description: Unless indicated otherwise, all binding experiments using purified immune cell subsets and biotinylated purified recombinant tumor-associated MUC1 glycoforms were performed as follows. 1×10^5 isolated/differentiated cells at 5×10^5 cells per mL were incubated for 4 hours on ice with 10 μg of the appropriate biotinylated recombinant MUC1 glycoform in 0.5% BSA in PBS. Cells were washed in 0.5% BSA in PBS before 1:200 SAPE (Life Technologies) was added for 30 minutes on ice. Cells were washed and analysed by flow cytometry or fluorescent microscopy (after cytospin), using streptavidin-PE (SAPE) as a label.

[1] = system: recombinant Siglecs 3, 7, 9 and 10; assay: Binding of biotinylated MUC1 glycoforms to plate-bound recombinant Siglec fusion proteins; parameters: species or system human; details: 2 μg/ml biotinylated MUC1 glycoform, 4 hours; panel Siglec 3, 5, 7, 8, 9 and 10
Description: Binding was enhanced when cells were pre-treated with 0.04 U/ml neuraminidase for 30 minutes at 37° C. in PBS (FIG. 3C), which removes competing cis-binding sialic acid sites from the surface of the cells. As this pattern is characteristic of binding to Siglecs (Macauley et al. (2014) NAT. REV. IMMUNOL. 14: 653-666), MUC1-ST binding to Siglecs was tested as follows: mouse anti human IgG was bound to plastic O/N and the plate was blocked using 1% BSA in PBS. Recombinant human Siglec (3, 5, 7, 8, 9 and 10) fusion proteins were added at 2 μg/mL for 2 hours. After incubation with 2 μg/ml biotinylated MUC1 glycoforms for 4 hours, O.D. was measured after the addition of streptavidin-HRP and substrate. […] Although Siglecs 3, 7 and 9 are expressed by monocytes and macrophages (FIG. 3D), a blocking antibody to Siglec-9 inhibited 80-95% of the MUC1-ST binding to these cells (FIGS. 2G-2I, 3E, and 5) indicating this is the dominant binding Siglec. […] Importantly, Siglec-9 bound to the breast cancer cell line T47D that expresses MUC1 carrying sialylated Core-1 glycans (FIG. 2J). Finally, isolated monocytes were bound to 10 μg/mL biotinylated MUC1-ST or 10 μg/mL biotinylated polyacrylamide carrying the ST glycan (PAA-ST; Glycotech).

allogeneic CD8+ T cells = assay: Co-culture of MUC1-ST treated macrophages with allogeneic CD8+ T cells; assay type: cell-based, human; details: macrophages educated with MUC1-ST
Description: Thereafter, the effects of MUC1-ST educated macrophages on T cell function were analyzed. Macrophages treated with MUC1-ST were co-cultured with eFluor® 670 labelled allogeneic CD8+ T cells in the presence of absence of anti-Siglec-9 antibody or isotype control. Indeed, macrophages that had been educated with MUC1-ST were decreased in their ability to stimulate the proliferation of allogeneic CD8 T cells (FIG. 11E). […] (FIG. 11F). This profile of expression and functional activity is indicative of tumor-associated macrophages (TAMs), which play a role in promoting tumor progression (Noy et al. (2014) IMMUNITY 41: 49-61; Sousa et al. (2015) BREAST CANCER RES. 17: 101; Qian et al. (2010) CELL 141: 39-45).

[2] = system: monocyte derived dendritic cells; assay: Differentiation of monocytes into dendritic cells; assay type: cell-based, human; details: MUC1-ST on day 0
Description: To differentiate monocytes into macrophages, CD14+ cells were plated at a concentration of 1×10^6/mL in AIM V medium (Lonza) with either 50 ng/mL recombinant human M-CSF or 50 ng/mL recombinant human GM-CSF (Bio-Techne). The cytokines were added every 3 days. The cells were incubated at 37° C., 5% CO2 for 7 days to fully differentiate, before being characterized as macrophages via phenotypic flow cytometric analysis. To differentiate monocytes into dendritic cells (moDC), CD14+ cells were plated at a concentration of 1×10^6/mL in AIM V medium with 1500 U/mL recombinant human IL-4 (Bio-Techne) and 400 U/mL human GM-CSF (Bio-Techne) for 6 days to fully differentiate, before being characterized as immature DCs via phenotypic flow cytometric analysis (Epics XL, Beckman Coulter or FACSCalibur, BD Biosciences plus WinMDI or Cellquest software). MoDCs were matured using 1 μg/mL LPS for 24 hours.
In addition, the effects of MUC1-ST on the differentiation of monocytes into dendritic cells were assessed. Briefly, monocytes were treated with MUC1-ST on day 0 and differentiated into immature dendritic cells (DCs) using IL-4 (1500 U/mL) and GM-CSF (400 U/mL) in AIM-V media for 6 days. Immature DCs were matured using 1 μg/mL LPS for 24 hours. […]

THP-1 cells = assay: Calcium flux in differentiated THP-1 cells; assay type: cell-based, human; details: THP-1 differentiated with PMA, 100 μg/mL MUC1-ST
Description: In addition, in a murine tumor model Siglec-E (the mouse Siglec with the most similarity to human Siglec-9), was associated with a decrease in alternatively activated macrophages (Laubli et al. (2014) PROC. NATL. ACAD. SCI. USA). As a result, the triggering of a calcium flux when MUC1-ST engaged Siglec-9 was investigated. Briefly, monocytes pre-labeled with an intracellular calcium reporter (Fluo-4; Life Technologies) were treated with MUC1-ST, MUC1-T (100 μg/10^6 cells) or a T47D monolayer, for 4 hours at 4° C. The cells were brought up to 37° C. and calcium flux was measured at 530 nm using a plate reader at the indicated time points. Where not indicated, the time point was 60 seconds. When monocytes or macrophages were treated with MUC1-ST, a Siglec-9 dependent increase in calcium influx was observed (FIGS. 13E-F). A calcium flux was also observed when monocytes and T47D cells came into contact. This effect could also be inhibited by the anti-Siglec-9 antibody.
The intracellular effects of MUC1-ST binding to Siglec-9 were further explored in the monocytic cell line, THP-1. […] THP-1 cells were further treated with DMSO or the MEK/ERK inhibitor PD98059 at 1004, and the concentration of PAI-1, M-CSF and kynurenine in cell supernatants were measured as described above. […]

Chain of Siglec-9 (Q9Y336 18-463): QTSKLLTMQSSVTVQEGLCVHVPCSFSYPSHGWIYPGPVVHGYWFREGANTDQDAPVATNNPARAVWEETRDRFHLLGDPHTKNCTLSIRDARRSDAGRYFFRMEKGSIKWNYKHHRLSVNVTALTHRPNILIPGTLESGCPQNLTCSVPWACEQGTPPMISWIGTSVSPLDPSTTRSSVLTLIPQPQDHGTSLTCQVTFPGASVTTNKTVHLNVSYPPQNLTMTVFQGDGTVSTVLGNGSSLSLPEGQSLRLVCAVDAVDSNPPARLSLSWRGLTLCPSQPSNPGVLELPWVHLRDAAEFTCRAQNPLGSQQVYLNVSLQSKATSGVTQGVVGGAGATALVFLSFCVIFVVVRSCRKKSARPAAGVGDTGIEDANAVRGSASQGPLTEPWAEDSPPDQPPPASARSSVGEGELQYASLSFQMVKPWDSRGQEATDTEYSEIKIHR

binding to cells (Siglec-9): found to bind | binding to recombinant Siglec fusion proteins [1]: bound
Substance: NeuAcα2,3Galβ1-3GalNAc linked via a Ser/Thr of MUC1 [MUC1-ST]
CD8 IFNγ secretion (allogeneic CD8+ T cells): decreased | ability of macrophages to stimulate proliferation of allogeneic CD8 T cells (allogeneic CD8+ T cells): decreased | levels of CD86 (immature DCs) and of CD86 and CD83 (matured DCs) [2]: lower levels | calcium flux (THP-1 cells): induce calcium flux
